{"source": "patent US7629340B2", "about": "“N-(6-membered aromatic ring)-amido anti-viral compounds” (SmithKline Beecham Corporation, priority 2005, dated 2009)", "data": [{"assay": "Replicon Assay (luciferase, ET cell line)", "assay_type": "cell-based, HCV", "details": "Hepatitis C virus; % inhibition of replication relative to no compound control, test concentration of 10 μM; ET cells, luciferase read 48-72 hours; read-out: % inhib at 10 uM", "protocol": "A cell line, ET (Huh-lucubineo-ET) was used for screening of compounds of the present invention for HCV RNA dependent RNA polymerase. The ET cell line was stably transfected with RNA transcripts harboring a I389luc-ubi-neo/NS3-3′/ET; replicon with firefly luciferase-ubiquitin-neomycin phosphotransferase fusion protein and EMCV-IRES driven NS3-5B polyprotein containing the cell culture adaptive mutations (E1202G; T1280I; K1846T) (Krieger at al, 2001 and unpublished). The ET cells were grown in DMEM, supplemented with 10% fetal calf serum, 2 mM Glutamine, Penicillin (100 IU/mL)/Stretomycin (100 μg/mL), 1× nonessential amino acids, and 250 μg/mL G418 (“Geneticin”). They were all available through Life Technologies (Bethesda, Md.). The cells were plated at 0.5−1.0×10^4 cells/well in the 96 well plates and incubated for 24 hrs before adding nucleoside analogs. […] Luciferase activity were measured 48-72 hours later by adding a lysis buffer and the substrate (Catalog number Glo-lysis buffer E2661 and Bright-Glo luciferase system E2620 Promega, Madison, Wis.). Cells should not be too confluent during the assay. Percent inhibition of replication was plotted relative to no compound control. Under the same condition, cytotoxicity of the compounds was determined using cell proliferation reagent, WST-1 (Roche, Germany). The compounds showing antiviral activities, but no significant cytotoxicities were chosen to determine IC50 and TC50. For these determinations, 10 concentration of each compound were used. Concentrations for test compounds typically span a range of 500 fold. IC50 and TC50 values were calculated by fitting % inhibition at each concentration (I) to the following equation: % inhibition=100%/[1+10^(log IC50−log(I))*b] where b is Hill's coefficient.", "units": {"inhibition at 10 µM": "%"}, "values": [{"smiles": "COc1ccc(-c2ccc(NC(=O)[C@@H]3CCCN3C(=O)OCc3ccccc3)cc2)cc1", "note": "[Compound 6019, 2-(4′-Methoxy-biphenyl-4-ylcarbamoyl)-pyrrolidine-1-carboxylic acid benzyl ester]", "inhibition at 10 µM": 10.5}, {"smiles": "Cc1nc2cc(-c3cccc(NC(=O)[C@@H]4CCCN4C(=O)OCc4ccccc4)c3)ccc2s1", "note": "[Compound 6091, 2-[3-(2-Methyl-benzothiazol-5-yl)-phenylcarbamoyl]-pyrrolidine-1-carboxylic acid benzyl ester]", "inhibition at 10 µM": 97.7}, {"smiles": "O=C(NC1CC1)c1csc(-c2cccc(NC(=O)[C@@H]3CCCN3C(=O)OCc3ccccc3)c2)n1", "note": "[Compound 6302, 2-[3-(4-Cyclopropylcarbamoyl-thiazol-2-yl)-phenylcarbamoyl]-pyrrolidine-1-carboxylic acid benzyl ester]", "inhibition at 10 µM": 12.2}, {"smiles": "O=C(Nc1cccc(-c2ccc([N+](=O)[O-])cc2)c1)[C@@H]1CCCN1C(=O)OCc1ccccc1", "note": "[Compound 6053, 2-(4′-Nitro-biphenyl-3-ylcarbamoyl)-pyrrolidine-1-carboxylic acid benzyl ester]", "inhibition at 10 µM": 93.3}, {"smiles": "CC(=O)c1ccc(-c2cccc(NC(=O)[C@@H]3CCCN3C(=O)OCc3ccccc3)c2)cc1", "note": "[Compound 6052, 2-(4′-Acetyl-biphenyl-3-ylcarbamoyl)-pyrrolidine-1-carboxylic acid benzyl ester]", "inhibition at 10 µM": 48.3}, {"smiles": "O=C(Nc1cc(Oc2ccc3oc4c(c3c2)CCCC4)cc([N+](=O)[O-])c1)[C@@H]1CCCN1C(=O)OCc1ccccc1", "note": "[Compound 6032, 2-[3-Nitro-5-(6,7,8,9-tetrahydro-dibenzofuran-2-yloxy)-phenylcarbamoyl]-pyrrolidine-1-carboxylic acid benzyl ester]", "inhibition at 10 µM": 44.5}, {"smiles": "O=C(NC1CC1)c1ccc(NC(=O)[C@@H]2CCCN2C(=O)OCc2ccccc2)cc1", "note": "[Compound 6305, 2-(4-Cyclopropylcarbamoyl-phenylcarbamoyl)-pyrrolidine-1-carboxylic acid benzyl ester]", "inhibition at 10 µM": 88.2}, {"smiles": "O=C(Nc1ccc(-c2cccs2)cc1)[C@@H]1CCCN1C(=O)OCc1ccccc1", "note": "[Compound 6023, 2-(4-Thiophen-2-yl-phenylcarbamoyl)-pyrrolidine-1-carboxylic acid benzyl ester]", "inhibition at 10 µM": 75.4}, {"smiles": "O=C(Nc1ccc(-c2cccc(-c3ccccc3)c2)cc1)[C@@H]1CCCN1C(=O)OCc1ccccc1", "note": "[Compound 6011, 2-([1,1′;3′,1″]Terphenyl-4-ylcarbamoyl)-pyrrolidine-1-carboxylic acid benzyl ester]", "inhibition at 10 µM": 99.7}, {"smiles": "O=C(Nc1cccc(-c2ccc3cc[nH]c3c2)c1)[C@@H]1CCCN1C(=O)OCc1ccccc1", "note": "[Compound 6097, 2-[3-(1H-Indol-6-yl)-phenylcarbamoyl]-pyrrolidine-1-carboxylic acid benzyl ester]", "inhibition at 10 µM": 99.8}, {"smiles": "O=C(NCc1cccc(-c2cccc(NC(=O)[C@@H]3CCCN3C(=O)OCc3ccccc3)c2)c1)C1CC1", "note": "[Compound 6311, 2-{3′-[(Cyclopropanecarbonyl-amino)-methyl]-biphenyl-3-ylcarbamoyl}-pyrrolidine-1-carboxylic acid benzyl ester]", "inhibition at 10 µM": 94.2}, {"smiles": "Cn1ccc2cc(-c3cccc(NC(=O)[C@@H]4CCCN4C(=O)OCc4ccccc4)c3)ccc21", "note": "[Compound 6051, 2-[3-(1-Methyl-1H-indol-5-yl)-phenylcarbamoyl]-pyrrolidine-1-carboxylic acid benzyl ester]", "inhibition at 10 µM": 68.8}, {"smiles": "O=C(NC1CC1)c1ccc(-c2cccc(NC(=O)[C@@H]3CCCN3C(=O)OCc3ccccc3)c2)cc1", "note": "[Compound 6301, 2-(4′-Cyclopropylcarbamoyl-biphenyl-3-ylcarbamoyl)-pyrrolidine-1-carboxylic acid benzyl ester]", "inhibition at 10 µM": 99.1}, {"smiles": "CN(C)c1ccc(-c2cccc(NC(=O)[C@@H]3CCCN3C(=O)OCc3ccccc3)c2)cc1", "note": "[Compound 6045, 2-(4′-Dimethylamino-biphenyl-3-ylcarbamoyl)-pyrrolidine-1-carboxylic acid benzyl ester]", "inhibition at 10 µM": 15.7}, {"smiles": "Cc1c(N)cccc1-c1cccc(NC(=O)[C@@H]2CCCN2C(=O)OCc2ccccc2)c1", "note": "[Compound 6090, 2-(3′-Amino-2′-methyl-biphenyl-3-ylcarbamoyl)-pyrrolidine-1-carboxylic acid benzyl ester]", "inhibition at 10 µM": 59.6}, {"smiles": "O=C(Nc1cccc(-c2ccc3c(c2)OCO3)c1)[C@@H]1CCCN1C(=O)OCc1ccccc1", "note": "[Compound 6043, 2-(3-Benzo[1,3]dioxol-5-yl-phenylcarbamoyl)-pyrrolidine-1-carboxylic acid benzyl ester]", "inhibition at 10 µM": 93.9}, {"smiles": "O=C(Nc1ccc(-c2cccc(COc3ccccc3)c2)cc1)[C@@H]1CCCN1C(=O)OCc1ccccc1", "note": "[Compound 6021, 2-(3′-Phenoxymethyl-biphenyl-4-ylcarbamoyl)-pyrrolidine-1-carboxylic acid benzyl ester]", "inhibition at 10 µM": 56.1}, {"smiles": "O=C(Nc1cccc(-c2cccc3cc[nH]c23)c1)[C@@H]1CCCN1C(=O)OCc1ccccc1", "note": "[Compound 6094, 2-[3-(1H-Indol-7-yl)-phenylcarbamoyl]-pyrrolidine-1-carboxylic acid benzyl ester]", "inhibition at 10 µM": 98.8}, {"smiles": "O=C(Nc1ccc(Cc2nc3ccccc3[nH]2)cc1)[C@@H]1CCCN1C(=O)OCc1ccccc1", "note": "(stereo in doubt) [Compound 6038, 2-[4-(1H-Benzoimidazol-2-ylmethyl)-phenylcarbamoyl]-pyrrolidine-1-carboxylic acid benzyl ester]", "inhibition at 10 µM": 9.34}, {"smiles": "O=C(Nc1cccc(-c2ccc3ncsc3c2)c1)[C@@H]1CCCN1C(=O)OCc1ccccc1", "note": "[Compound 6304, 2-(3-Benzothiazol-6-yl-phenylcarbamoyl)-pyrrolidine-1-carboxylic acid benzyl ester]", "inhibition at 10 µM": 70.4}, {"smiles": "COc1ccc2nc(NC(=O)c3ccc(NC(=O)[C@@H]4CCCN4C(=O)OCc4ccccc4)cc3)sc2c1", "note": "[Compound 6030, 2-[4-(6-Methoxy-benzothiazol-2-ylcarbamoyl)-phenylcarbamoyl]-pyrrolidine-1-carboxylic acid benzyl ester]", "inhibition at 10 µM": 42.2}, {"smiles": "O=C(Nc1cccc(-c2cccc(O)c2)c1)[C@@H]1CCCN1C(=O)OCc1ccccc1", "note": "[Compound 6092, 2-(3′-Hydroxy-biphenyl-3-ylcarbamoyl)-pyrrolidine-1-carboxylic acid benzyl ester]", "inhibition at 10 µM": 95.3}, {"smiles": "O=C(O)/C=C/c1ccc(-c2cccc(NC(=O)[C@@H]3CCCN3C(=O)OCc3ccccc3)c2)cc1", "note": "[Compound 6055, 2-[4′-(2-Carboxy-vinyl)-biphenyl-3-ylcarbamoyl]-pyrrolidine-1-carboxylic acid benzyl ester]", "inhibition at 10 µM": 40.9}, {"smiles": "O=C1Nc2ccc(-c3cccc(NC(=O)[C@@H]4CCCN4C(=O)OCc4ccccc4)c3)cc2C1=O", "note": "[Compound 6084, 2-[3-(2,3-Dioxo-2,3-dihydro-1H-indol-5-yl)-phenylcarbamoyl]-pyrrolidine-1-carboxylic acid benzyl ester]", "inhibition at 10 µM": 3.35}, {"smiles": "O=C(NCc1ccc(-c2cccc(NC(=O)[C@@H]3CCCN3C(=O)OCc3ccccc3)c2)cc1)C1CC1", "note": "[Compound 6308, 2-{4′-[(Cyclopropanecarbonyl-amino)-methyl]-biphenyl-3-ylcarbamoyl}-pyrrolidine-1-carboxylic acid benzyl ester]", "inhibition at 10 µM": 56.2}, {"smiles": "O=C(Nc1cccc(-c2cccc3[nH]ccc23)c1)[C@@H]1CCCN1C(=O)OCc1ccccc1", "note": "[Compound 6082, 2-[3-(1H-Indol-4-yl)-phenylcarbamoyl]-pyrrolidine-1-carboxylic acid benzyl ester]", "inhibition at 10 µM": 97.4}, {"smiles": "O=C(Nc1cccc(Oc2c(F)c(F)c(F)c(F)c2F)c1)[C@@H]1CCCN1C(=O)OCc1ccccc1", "note": "[Compound 6012, 2-(3-Pentafluorophenyloxy-phenylcarbamoyl)-pyrrolidine-1-carboxylic acid benzyl ester]", "inhibition at 10 µM": 44.5}, {"smiles": "O=C(Nc1ccc(-c2nnc(-c3ccco3)o2)cc1)[C@@H]1CCCN1C(=O)OCc1ccccc1", "note": "[Compound 6025, 2-[4-(5-Furan-2-yl-[1,3,4]oxadiazol-2-yl)-phenylcarbamoyl]-pyrrolidine-1-carboxylic acid benzyl ester]", "inhibition at 10 µM": 5.45}, {"smiles": "N#Cc1cccc(-c2cccc(NC(=O)[C@@H]3CCCN3C(=O)OCc3ccccc3)c2)c1", "note": "[Compound 6307, 2-(3′-Cyano-biphenyl-3-ylcarbamoyl)-pyrrolidine-1-carboxylic acid benzyl ester]", "inhibition at 10 µM": 32.3}, {"smiles": "Nc1cccc(-c2cccc(NC(=O)[C@@H]3CCCN3C(=O)OCc3ccccc3)c2)c1", "note": "[Compound 6054, 2-(3′-Amino-biphenyl-3-ylcarbamoyl)-pyrrolidine-1-carboxylic acid benzyl ester]", "inhibition at 10 µM": 97.7}, {"smiles": "O=C(Nc1cccc(Oc2ccccc2)c1)[C@@H]1CCCN1C(=O)OCc1ccccc1", "note": "[Compound 6034, 2-(3-Phenoxy-phenylcarbamoyl)-pyrrolidine-1-carboxylic acid benzyl ester]", "inhibition at 10 µM": 26.7}, {"smiles": "COc1ccc(-c2ccc(NC(=O)[C@@H]3CCCN3C(=O)OCc3ccccc3)cc2)c(OC)c1", "note": "[Compound 6001, 2-(2′,4′-Dimethoxy-biphenyl-4-ylcarbamoyl)-pyrrolidine-1-carboxylic acid benzyl ester]", "inhibition at 10 µM": 87.8}]}]}
